Assay results: patent US20240131046A1, “ANTI-VIRAL AGENT” (NATIONAL UNIVERSITY CORPORATION HOKKAIDO UNIVERSITY, priority 2021, published 2024)

Test system: SARS-CoV-2 (strain WK-521) and various variants thereof
Assay type: cell-based

Nc1ncnc2c1c(CO)cn2[C@@H]1O[C@H](CO)[C@@H](O)[C@H]1O [HUP1108, 5-hydroxymethyltubercidin]
virus amount released from infected cells / antiviral activity against variant strains: has antiviral activity against various variant strains of SARS-CoV-2
